In patent US20210348204A1, “Systems, Methods, And Compositions For The Production of Water-Soluble Terpenes Derived From Cannabis Plants” (Trait Biosciences, Inc., priority 2018, published 2021):

Assays:
cannabinoid receptor = settings: cited from earlier work
onychomycosis = settings: comparable to ciclopiroxolamine and sulcanazole; cited from earlier work
platelet aggregation = settings: cited from earlier work
[1] = in vivo; cited from earlier work
acne bacteria = settings: cited from earlier work
[2] = via inhalation; cited from earlier work
Dermatophytes = settings: cited from earlier work
breast cancer cells = settings: cited from earlier work
5-HTEA = biological target: T1, 5-HTEA (Mus musculus, UniProt Q64264); settings: via 5-HTEA; cited from earlier work
T1 sequence (Q64264 1-421): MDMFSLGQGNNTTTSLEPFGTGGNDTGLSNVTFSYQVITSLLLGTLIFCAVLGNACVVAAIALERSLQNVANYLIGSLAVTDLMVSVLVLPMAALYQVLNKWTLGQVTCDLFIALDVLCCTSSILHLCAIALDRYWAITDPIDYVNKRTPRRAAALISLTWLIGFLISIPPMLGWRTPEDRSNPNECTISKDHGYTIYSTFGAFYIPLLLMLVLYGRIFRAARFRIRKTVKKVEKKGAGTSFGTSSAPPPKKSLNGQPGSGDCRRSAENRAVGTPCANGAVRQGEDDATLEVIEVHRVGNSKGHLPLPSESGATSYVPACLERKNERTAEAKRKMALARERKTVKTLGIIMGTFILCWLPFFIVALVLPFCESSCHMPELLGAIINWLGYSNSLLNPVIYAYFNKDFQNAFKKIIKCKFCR

[3] = on inhalation in mice; cited from earlier work
adenosine Aza = adenosine Aza (Mus musculus, UniProt Q60613); settings: via adenosine Aza; cited from earlier work
[4] = in vivo; cited from earlier work; remark: listed apart in the source
Leishmania = settings: cited from earlier work
glutamate = settings: in vivo; cited from earlier work
[5] = system: Pichia pastoris yeast cells; assay: Yeast cell growth after feeding transgenic Pichia cultures with individual terpenes; settings: terpene 100 μg/mL final concentration, cultures harvested 2 days post-feeding
[6] = in humans; cited from earlier work
Acetylcholinesterase = Acetylcholinesterase (Homo sapiens, UniProt P22303); settings: aiding memory; cited from earlier work
PGE-3 = settings: via PGE-3; cited from earlier work
malaria = settings: cited from earlier work
[7] = in vivo; cited from earlier work; remark: listed apart in the source
PGE-1 = settings: via PGE-1, comparable phenylbutazone; cited from earlier work
CB2 = CB2 (Homo sapiens, UniProt P34972); settings: cited from earlier work
PGE-2 = settings: via PGE-2; cited from earlier work
[8] = antagonized by naloxone; cited from earlier work
[9] = in vivo; cited from earlier work; remark: listed apart in the source

Sequence of Acetylcholinesterase (P22303 32-614): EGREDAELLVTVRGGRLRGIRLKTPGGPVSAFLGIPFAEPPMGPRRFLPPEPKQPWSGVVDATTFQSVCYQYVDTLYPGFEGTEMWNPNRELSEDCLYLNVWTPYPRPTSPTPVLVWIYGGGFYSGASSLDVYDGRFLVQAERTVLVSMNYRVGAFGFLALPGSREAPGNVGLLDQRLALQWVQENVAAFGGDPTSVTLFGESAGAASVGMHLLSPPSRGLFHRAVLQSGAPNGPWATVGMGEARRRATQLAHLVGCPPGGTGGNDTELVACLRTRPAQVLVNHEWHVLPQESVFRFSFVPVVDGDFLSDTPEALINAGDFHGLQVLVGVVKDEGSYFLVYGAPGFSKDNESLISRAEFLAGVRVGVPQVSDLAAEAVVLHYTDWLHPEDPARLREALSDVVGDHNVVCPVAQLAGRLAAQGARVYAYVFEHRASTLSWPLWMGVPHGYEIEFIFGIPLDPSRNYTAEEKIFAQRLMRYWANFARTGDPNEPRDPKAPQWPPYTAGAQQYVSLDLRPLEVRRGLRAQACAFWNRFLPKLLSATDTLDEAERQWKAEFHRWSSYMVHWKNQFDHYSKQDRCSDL
Sequence of adenosine Aza (Q60613 whole entry): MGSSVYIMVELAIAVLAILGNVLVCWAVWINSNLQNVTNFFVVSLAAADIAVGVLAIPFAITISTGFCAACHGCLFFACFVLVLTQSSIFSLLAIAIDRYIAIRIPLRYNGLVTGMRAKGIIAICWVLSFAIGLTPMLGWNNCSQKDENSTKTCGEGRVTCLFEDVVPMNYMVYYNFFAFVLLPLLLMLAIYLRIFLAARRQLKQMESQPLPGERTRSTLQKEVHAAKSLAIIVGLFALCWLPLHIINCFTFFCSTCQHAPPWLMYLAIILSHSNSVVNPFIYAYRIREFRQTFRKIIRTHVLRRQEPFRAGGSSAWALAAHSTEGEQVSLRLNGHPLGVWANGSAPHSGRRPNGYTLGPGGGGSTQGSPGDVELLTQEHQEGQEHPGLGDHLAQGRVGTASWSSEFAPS
Sequence of CB2 (P34972 whole entry): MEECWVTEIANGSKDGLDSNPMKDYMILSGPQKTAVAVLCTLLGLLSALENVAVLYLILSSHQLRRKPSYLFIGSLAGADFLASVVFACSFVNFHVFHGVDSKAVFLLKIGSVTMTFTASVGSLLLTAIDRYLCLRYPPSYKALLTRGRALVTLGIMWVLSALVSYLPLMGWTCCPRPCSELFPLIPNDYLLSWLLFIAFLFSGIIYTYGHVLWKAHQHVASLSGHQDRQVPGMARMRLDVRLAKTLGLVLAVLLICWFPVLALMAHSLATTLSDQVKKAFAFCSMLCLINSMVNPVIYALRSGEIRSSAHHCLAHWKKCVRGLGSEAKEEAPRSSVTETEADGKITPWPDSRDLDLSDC

SMILES: C=C(C)[C@@H]1CCC(C)=C[C@H]1c1c(O)cc(CCCCC)cc1O [CBD, cannabidiol]
- Affinity for the cannabinoid receptor (in words) (cannabinoid receptor): do not have significant affinity

SMILES: C=C1CC[C@H]2O[C@]2(C)CC[C@@H]2[C@@H]1CC2(C)C [Caryophyllene Oxide]
- Antifungal activity in onychomycosis (onychomycosis): Antifungal in onychomycosis comparable to ciclopiroxolamine and sulcanazole
- Effect on platelet aggregation (platelet aggregation): Decreases platelet aggregation

SMILES: C=C(C)[C@H]1CC=C(C)CC1 [Limonene]
- Activity in gastro-aesophageal reflux [1]: Gastro-aesophageal reflux (Harris, 2010)
- Activity against acne bacteria (acne bacteria): Active against acne bacteria (Kim et al., 2008)
- AD/immunostimulant activity [2]: Potent AD/immunostimulant via inhalation
- Activity against dermatophytes (Dermatophytes): Dermatophytes (Sanguinetti et al., 2007;
- Apoptosis of breast cancer cells (breast cancer cells): Apoptosis of breast cancer cells (Vigushin
- Anxiolytic activity (5-HTEA): Anxielytic

SMILES: C=CC(C)(O)CCC=C(C)C (stereo not drawn) [Linalool]
- Sedative activity [3]: Sedative on inhalation in mice
- Analgesic activity (adenosine Aza): Analgesic via adenosine Aza (Peana et al.,
- Anti-anxiety activity [4]: Anti-anxiety
- Anti-leishmanial activity (Leishmania): Potent anti-leshmarial (do Socorro et al.,
- Anticonvulsant/anti-glutamate activity (glutamate): Anticonvulsant/anti-glutamate (Elisabetsky

SMILES: CC(C)=CCC[C@](C)(O)[C@@H]1CC=C(C)CC1 [alpha-bisabolol]
- Effect on yeast cell growth rates [5]: no observed negative effect

SMILES: CC(C)=CCCC(C)CCO (stereo not drawn) [citronellol]
- Effect on yeast cell growth rates [5]: no observed negative effect

SMILES: CC(C)=CCC/C(C)=C\CO [nerol]
- Effect on yeast cell growth rates [5]: no observed negative effect

SMILES: CC1=CCC2CC1C2(C)C (stereo not drawn) [α-Pinene]
- Bronchodilatory activity [6]: Bronchodilatory in humans
- Acetylcholinesterase inhibition (Acetylcholinesterase): Acetylcholinesterase inhibitor, aiding memory
- Anti-inflammatory activity (PGE-3): Anti-inflammatory via PGE-3

SMILES: C=C1CC/C=C(\C)CC[C@@H]2[C@@H]1CC2(C)C [β-Caryophyllene]
- Anti-malarial activity (malaria): Anti-malarial
- Gastric cytoprotective activity [7]: Gastric cytoprotective
- A1 (anti-inflammatory) activity (PGE-1): A1 via PGE-1 comparable phenylbutazone
- Selective CB2 agonist (concentration given) (CB2): 100 nM

SMILES: C=CC(=C)CCC=C(C)C [β-Myrcene]
- Blocking of inflammation (PGE-2): Blocks inflammation via PGE-2
- Analgesic activity [8]: Analgesic, antagonized by naloxone
- Sedating, muscle relaxant, hypnotic activity [9]: Sedating, muscle relaxant, hypnotic (da Vale
